The conditions of the data set: in vivo, iv, 20 mg/kg. The method, then:
Where F is the absolute bioavailability, AUCLUNG and DLUNG are the area under the curve and dose, respectively, for drug administration through the lung. AUCIV and DIV are areas under the curve and dose, respectively, of drug administered intravenously. From internal PK Studies performed, it is known that F equals 0.54 for capreomycin particles administered through the lungs, AUCIV equals 48.47 μgh/ml, and DIV equals 20 mg/kg.

For the substance capreomycin, the AUCIV is 48.47 μgh/ml.
